Each structure is given as a SMILES string.

The experiment deals with T1, ferroportin (Fpn) (Mus musculus, UniProt Q9JHI9).
T1 construct: endogenous in cells; host or cells: J774 mouse macrophage cell line, induced with Fe(III)NTA
T1 sequence (Q9JHI9 1-570): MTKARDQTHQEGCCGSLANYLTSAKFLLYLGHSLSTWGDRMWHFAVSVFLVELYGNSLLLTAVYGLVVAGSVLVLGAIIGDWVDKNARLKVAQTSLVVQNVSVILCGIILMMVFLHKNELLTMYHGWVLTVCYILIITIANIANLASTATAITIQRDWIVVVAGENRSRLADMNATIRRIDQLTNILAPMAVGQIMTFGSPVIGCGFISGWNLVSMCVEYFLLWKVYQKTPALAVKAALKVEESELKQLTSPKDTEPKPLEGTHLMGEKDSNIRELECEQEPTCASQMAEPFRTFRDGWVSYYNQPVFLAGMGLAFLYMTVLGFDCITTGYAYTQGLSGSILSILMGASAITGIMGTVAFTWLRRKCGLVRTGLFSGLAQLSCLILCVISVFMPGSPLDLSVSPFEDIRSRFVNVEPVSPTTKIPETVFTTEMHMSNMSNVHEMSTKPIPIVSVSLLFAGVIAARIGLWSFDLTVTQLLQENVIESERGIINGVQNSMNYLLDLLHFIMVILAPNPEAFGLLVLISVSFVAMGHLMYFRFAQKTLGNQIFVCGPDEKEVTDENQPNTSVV
As to the kind of experiment: Hepcidin Internalization Assay (J774). Type of experiment: cell-based. The conditions noted are these: J774 cells, 25 nM TMR-hepcidin, 2 hours; average of multiple measurements; read-out: Average (AVE) IC50 of Fpn inhibitors in the hepcidin internalization assay. An excerpt:
This cellular assay allows quantification of the binding of hepcidin to ferroportin (Fpn) through microscopic detection of internalization of a fluorescently labeled hepcidin into J774 cells. […] Binding of hepcidin to Fpn triggers internalization and degradation of both hepcidin and Fpn. […] Therefore, microscopic detection of cell-associated TMR fluorescence is a measure of hepcidin binding to Fpn and internalization of hepcidin and Fpn. If TMR-hepcidin is prevented from binding to Fpn, cellular TMR fluorescence remains low (Durrenberger et al, 2013). The effect of small molecular weight Fpn inhibitor compounds in this assay was evaluated in vitro as described below. […] Cat. 655090) and grown at 37° C. with 5% CO2. After overnight incubation, cells were washed 3 times with pre-warmed DMEM w/o phenol red, 30 μl/well of DMEM w/o phenol red was added after the final wash and 10 μl/well of dilution series of test compounds were added in triplicates. […] Cells were incubated in a total volume of 50 μl at 37° C. with 5% CO2 for 2 hours, then Hoechst 33342 dye was added to a final concentration of 0.5 μg/ml to stain nuclei and further incubated for 10 min. at 37° C. with 5% CO2. […] After removal of the paraformaldehyde solution, cells were washed 3 times with PBS leaving 100 μl per well and the plates were sealed with foil plate seal. […] The acquired image data was analysed with the […] analysis software. […] IC50 values were calculated with the Sum(Mean) raw data using “log(inhibitor) vs. response” curve fitting of Prism 5 software (GraphPad Software Inc., version 5.02). For each data set the fit of the “log(inhibitor) vs. response (three parameters)” model was compared to the fit of the “log(inhibitor) vs. response-Variable slope (four parameters)” model and the IC50 data of the preferred model was used.
Regarding `COCCn1c(CCNCCc2nc3c(NCc4ncccc4F)nccc3o2)nc2ccccc21` [Example Compound No. 1, N-((3-fluoropyridin-2-yl)methyl)-2-(2-((2-(1-(2-methoxyethyl)-1H-benzo[d]imidazol-2-yl)ethyl)amino)ethyl)oxazolo[4,5-c]pyridin-4-amine], the IC50 worked out at 9 nM.

As for `Fc1cccnc1CNc1nccc2oc(CCNCCc3nc4ccccc4n3CC3CC3)nc12` [Example Compound No. 2, 2-(2-((2-(1-(cyclopropylmethyl)-1H-benzo[d]imidazol-2-yl)ethyl)amino)ethyl)-N-((3-fluoropyridin-2-yl)methyl)oxazolo[4,5-c]pyridin-4-amine], the IC50 was found to be 15 nM.

`COCCOCCn1c(CCNCCc2nc3c(NCc4ncccc4F)nccc3o2)nc2ccccc21` [Example Compound No. 3, N-((3-fluoropyridin-2-yl)methyl)-2-(2-((2-(1-(2-(2-methoxyethoxy)ethyl)-1H-benzo[d]imidazol-2-yl)ethyl)amino)ethyl)oxazolo[4,5-c]pyridin-4-amine]: the IC50 is 9 nM.

Consider `CC(C)OCCn1c(CCNCCc2nc3c(NCc4ncccc4F)nccc3o2)nc2ccccc21` [Example Compound No. 4, N-((3-fluoropyridin-2-yl)methyl)-2-(2-((2-(1-(2-isopropoxyethyl)-1H-benzo[d]imidazol-2-yl)ethyl)amino)ethyl)oxazolo[4,5-c]pyridin-4-amine], for which the half-maximal inhibitory concentration (IC50) was 4 nM.

For the compound `COCCn1c(CCN2CC(c3nc4c(NCc5ncccc5F)nccc4o3)C2)nc2ccccc21` [Example Compound No. 5, N-((3-fluoropyridin-2-yl)methyl)-2-(1-(2-(1-(2-methoxyethyl)-1H-benzo[d]imidazol-2-yl)ethyl)azetidin-3-yl)oxazolo[4,5-c]pyridin-4-amine], the IC50 was 7 nM.

`COCCOCCn1c(CCN2CC(c3nc4c(NCc5ncccc5F)nccc4o3)C2)nc2ccccc21` [Example Compound No. 6, N-((3-fluoropyridin-2-yl)methyl)-2-(1-(2-(1-(2-(2-methoxyethoxy)ethyl)-1H-benzo[d]imidazol-2-yl)ethyl)azetidin-3-yl)oxazolo[4,5-c]pyridin-4-amine]: the IC50 amounted to 11 nM.

Take `COCCn1c(CCNCCc2nc3c(NCc4ncccc4F)nccc3o2)nc2cc3c(cc21)OCCO3` [Example Compound No. 7, N-((3-fluoropyridin-2-yl)methyl)-2-(2-((2-(1-(2-methoxyethyl)-6,7-dihydro-1H-[1,4]dioxino-[2′,3′:4,5]benzo[1,2-d]imidazol-2-yl)ethyl)amino)ethyl)oxazolo[4,5-c]pyridin-4-amine]: the IC50 was found to be 83 nM.

As to `Fc1cccnc1CNc1nccc2oc(CCNCCc3nc4ccccc4n3CCN3CCOCC3)nc12` [Example Compound No. 8, N-((3-fluoropyridin-2-yl)methyl)-2-(2-((2-(1-(2-morpholinoethyl)-1H-benzo[d]imidazol-2-yl)ethyl)amino)ethyl)oxazolo[4,5-c]pyridin-4-amine], the half-maximal inhibitory concentration (IC50) came out at 7 nM.

`Fc1cccnc1CNc1nccc2oc(CCNCCc3nc4cc5c(cc4n3CCN3CCOCC3)OCCO5)nc12` [Example Compound No. 9, N-((3-fluoropyridin-2-yl)methyl)-2-(2-((2-(1-(2-morpholinoethyl)-6,7-dihydro-1H-[1,4]dioxino[2′,3′:4,5]benzo[1,2-d]imidazol-2-yl)ethyl)amino)ethyl)oxazolo[4,5-c]pyridin-4-amine]: the half-inhibitory concentration (IC50) worked out at 827 nM.

`Fc1cccnc1CNc1nccc2oc(CCNCCc3nc4ccccc4n3Cc3ccccc3)nc12` [Example Compound No. 10, 2-(2-((2-(1-benzyl-1H-benzo[d]imidazol-2-yl)ethyl)amino)ethyl)-N-((3-fluoropyridin-2-yl)methyl)oxazolo[4,5-c]pyridin-4-amine]: the IC50 is 8 nM.

The values above are taken from US20260146046A1, “BICYCLIC FERROPORTIN INHIBITORS” (Vifor (International) AG, priority 2022, published 2026).
